In the supplement of paper PMC10307832 one finds relative viability data, which are given here for 1 cell line.

Common to all, as to assay: relative viability (nuclei count vs DMSO), 5 days (fraction); higher = more cells survive
Compound in assay [1]: C1CSC2=C(C(=O)N1)SC3=C2C=C(C=C3)O [kb NB 142-70] + CC(C)C[C@H](NC(=O)[C@H](Cc1ccccc1)NC(=O)c1cnccn1)B(O)O [Bortezomib] (partner 0.002 µM)
The method, boiled down:
(§1)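 Nuclei were stained with Hoechst during a one-step fixation (final 0.05% Triton X-100, 1% formaldehyde, 1 ug/ml Hoechst) carried out 5 days after dosing, then counted on 4× images. The cells, lung cancer lines in 1536-well plates, had been dosed by pin tool the day after seeding with one drug alone or a fixed anchor-drug dose plus five library-drug doses (not always all listed) in √10 steps. Relative viability is the nuclei count in treated wells divided by that in vehicle wells, and each value is the median of duplicate plates.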

Compound in assay [2]: C1CSC2=C(C(=O)N1)SC3=C2C=C(C=C3)O [kb NB 142-70] + O=C(CCCCCCC(=O)Nc1ccccc1)NO [Vorinostat] (partner 1 µM)
The essentials: as §1

Compound in assay [3]: NCC(=O)Nc1ccc(-n2nc(C(F)(F)F)cc2-c2ccc3c(ccc4ccccc43)c2)cc1 + COc1cccc2cc(-c3nc([C@H]4CC[C@H](C(=O)O)CC4)n4ncnc(N)c34)[nH]c12 [OSI-027] (partner 0.5 µM)
The method, boiled down:
as §1

Compound in assay [4]: NCC(=O)Nc1ccc(-n2nc(C(F)(F)F)cc2-c2ccc3c(ccc4ccccc43)c2)cc1 + Nc1ncn([C@H]2C[C@H](O)[C@@H](CO)O2)c(=O)n1 [Decitabine] (partner 2 µM)
The method, boiled down: as §1

UMC-11: the relative viability in assay [1] (first compound 0.1 µM) is 0.667; in assay [1] (first compound 1 µM), 0.806; in assay [1] (first compound 3.162 µM) it was 0.703; in assay [2] (first compound 0.1 µM), 0.39; in assay [2] (first compound 1 µM) it was 0.316; in assay [2] (first compound 3.162 µM), 0.223. For the same cell line, the relative viability in assay [3] (first compound 0.02 µM) turned out to be 0.402; in assay [3] (first compound 0.06325 µM) it was 0.475; in assay [3] (first compound 0.2 µM), 0.485; in assay [3] (first compound 0.6325 µM), 0.443; in assay [3] (first compound 2 µM), 0.453; in assay [4] (first compound 0.02 µM), 0.63. Also, the relative viability in assay [4] (first compound 0.06325 µM) amounted to 0.593; in assay [4] (first compound 0.2 µM), 0.557; in assay [4] (first compound 0.6325 µM), 0.539; in assay [4] (first compound 2 µM) it was 0.701.
